# Data from patent EP4745137A1 (Gluetacs Therapeutics (Shanghai) Co., Ltd., priority 2023, dated 2025).
# Tests used:
# IKZF1 = molecular target: T1, IKZF1 (Homo sapiens, UniProt Q13422+Q96SW2); test: Western-blot assay of substrate protein degradation in hPBMCs, IKZF1; type: cell-based; details: 24 hours of compound treatment, compounds tested at 50 nM and 500 nM (concentration of the table not stated)
# T1 construct: endogenous in cells; host or cells: hPBMCs (Milecell Biotechnologies)
# MM.1R = test: Tumor cell proliferation inhibition (CellTiter-Meiluncell Luminescent Cell Viability Assay), MM.1R; details: Homo sapiens, 96 h, read-out: inhibitory activity (IC50, nM) against tumor cells proliferation, MM.1R
# IKZF2 = molecular target: T2, IKZF2 (Homo sapiens, UniProt Q96SW2+Q9UKS7); test: Western-blot assay of substrate protein degradation in hPBMCs, IKZF2; type: cell-based; details: 24 hours of compound treatment, compounds tested at 50 nM and 500 nM (concentration of the table not stated)
# T2 construct: endogenous in cells; host or cells: hPBMCs (Milecell Biotechnologies)
# Jurkat = test: Tumor cell proliferation inhibition (CellTiter-Meiluncell Luminescent Cell Viability Assay), Jurkat; details: Homo sapiens, 96 h, read-out: inhibitory activity (IC50, nM) against tumor cells proliferation, Jurkat
# IKZF3 = molecular target: T3, IKZF3 (Homo sapiens, UniProt Q96SW2+Q9UKT9); test: Western-blot assay of substrate protein degradation in hPBMCs, IKZF3; type: cell-based; details: 24 hours of compound treatment, compounds tested at 50 nM and 500 nM (concentration of the table not stated)
# T3 construct: endogenous in cells; host or cells: hPBMCs (Milecell Biotechnologies)
# CAL-62 = test: Tumor cell proliferation inhibition (CellTiter-Meiluncell Luminescent Cell Viability Assay), CAL-62; details: Homo sapiens, CAL-62, 96 h, read-out: inhibitory activity (IC50, nM) against tumor cells proliferation, CAL-62
# [1] = molecular target: T4, human Cereblon WT GST-tagged protein (Homo sapiens, UniProt Q96SW2); test: CRBN-binding affinity by HTRF (CEREBLON BINDING kit); details: HTRF inhibitory activity, CEREBLON BINDING kit; read-out: HTRF IC50
# T4 construct: purchased CISBIO 64BDCRBNPEH
# Vcap = test: Tumor cell proliferation inhibition (CellTiter-Meiluncell Luminescent Cell Viability Assay), Vcap; details: Homo sapiens, 96 h, read-out: inhibitory activity (IC50, nM) against tumor cells proliferation, Vcap
# [2] = system: Human acute T lymphocytic leukemia cells (Molt-4); test: Tumor cell proliferation inhibition (CellTiter-Meiluncell Luminescent Cell Viability Assay), Molt-4; details: MOLT-4, 96 h, read-out: inhibitory activity (IC50, nM) against tumor cells proliferation, Molt 4
# CCRF-CEM = test: Tumor cell proliferation inhibition (CellTiter-Meiluncell Luminescent Cell Viability Assay), CCRF-CEM; details: Homo sapiens, 96 h, read-out: inhibitory activity (IC50, nM) against tumor cells proliferation, CCRF-CEM
# Method: (§1) The tumor cells used herein were cultured in a cell culture medium listed in table 2 at 37°C in an incubator with 5% CO2. Prior to experimentation, all cell lines used were correctly identified by STR profiling, and tested negative for mycoplasma contamination using a mycoplasma detection kit through routine screenings.
# (§2) On the following day, the test compounds of the present disclosure were subjected to serial dilution. […] Subsequently, 0.5 µL of the test compound dilution was transferred into the 96-well plate containing the cells, with each well containing 100 µL of cell culture medium. […] Into the 96-well plate, the diluted test compounds and corresponding detection reagents were added, resulting in final test compound concentrations of 500 nM and 10 nM, respectively. The experimental procedure is described below using the diluted 2 µM test compound as an example.
# (§3) After the cells were treated with the compounds of the present disclosure for a specified period (the treatment durations were shown in Table 3), the cell viability assay reagent was added to the culture medium according to the kit's instructions to determine cell viability. […] All controls were treated using the same procedure as the compounds of the present disclosure. The growth inhibition curves for the compounds of the present disclosure were plotted using Prism GraphPad software, and the IC50 values were calculated therefrom.
# WEE1 = molecular target: T5, WEE1 (Homo sapiens, UniProt P30291+Q96SW2); test: Western-blot assay of substrate protein degradation in hPBMCs, WEE1; type: cell-based; details: 24 hours of compound treatment, compounds tested at 50 nM and 500 nM (concentration of the table not stated)
# T5 construct: endogenous in cells; host or cells: hPBMCs (Milecell Biotechnologies)
# CK1α = molecular target: T6, CK1α (Homo sapiens, UniProt P48729+Q96SW2); test: Western-blot assay of substrate protein degradation in hPBMCs, CK1α; type: cell-based; details: 24 hours of compound treatment, compounds tested at 50 nM and 500 nM (concentration of the table not stated)
# T6 construct: endogenous in cells; host or cells: hPBMCs (Milecell Biotechnologies)
# GSPT1 = molecular target: T7, GSPT1 (Homo sapiens, UniProt P15170+Q96SW2); test: Western-blot assay of substrate protein degradation in hPBMCs, GSPT1; type: cell-based; details: 24 hours of compound treatment, compounds tested at 50 nM and 500 nM (concentration of the table not stated)
# T7 construct: endogenous in cells; host or cells: hPBMCs (Milecell Biotechnologies)
# [3] = system: Human breast cancer cells (MDA-MB-231); test: Tumor cell proliferation inhibition (CellTiter-Meiluncell Luminescent Cell Viability Assay), MDA-MB-231; details: MDA-MB-231, 96 h, read-out: inhibitory activity (IC50, nM) against tumor cells proliferation, MDA-MB-231
# Method: as §1, §2, §3
# NCI-H1975 = test: Tumor cell proliferation inhibition (CellTiter-Meiluncell Luminescent Cell Viability Assay), NCI-H1975; details: Homo sapiens, NCI-H1975, 96 h, read-out: inhibitory activity (IC50, nM) against tumor cells proliferation, H1975
# TMD8 = test: Tumor cell proliferation inhibition (CellTiter-Meiluncell Luminescent Cell Viability Assay), TMD8; details: Homo sapiens, TMD8, 96 h, read-out: inhibitory activity (IC50, nM) against tumor cells proliferation, TMD8
# Method: as §1, §2, §3
# T4 sequence (Q96SW2 whole entry): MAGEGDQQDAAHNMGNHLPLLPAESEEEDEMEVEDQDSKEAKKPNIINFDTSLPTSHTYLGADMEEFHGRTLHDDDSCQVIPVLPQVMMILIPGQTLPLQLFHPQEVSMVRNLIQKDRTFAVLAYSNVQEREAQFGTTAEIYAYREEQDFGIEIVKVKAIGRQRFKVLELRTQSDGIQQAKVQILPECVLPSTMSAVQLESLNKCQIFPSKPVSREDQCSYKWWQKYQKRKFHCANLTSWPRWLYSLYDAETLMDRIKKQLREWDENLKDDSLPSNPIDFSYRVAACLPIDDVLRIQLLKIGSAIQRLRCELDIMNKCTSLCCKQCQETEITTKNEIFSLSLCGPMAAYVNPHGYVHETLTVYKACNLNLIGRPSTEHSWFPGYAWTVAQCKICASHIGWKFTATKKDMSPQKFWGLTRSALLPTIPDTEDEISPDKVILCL
# T3 sequence (Q9UKT9 whole entry): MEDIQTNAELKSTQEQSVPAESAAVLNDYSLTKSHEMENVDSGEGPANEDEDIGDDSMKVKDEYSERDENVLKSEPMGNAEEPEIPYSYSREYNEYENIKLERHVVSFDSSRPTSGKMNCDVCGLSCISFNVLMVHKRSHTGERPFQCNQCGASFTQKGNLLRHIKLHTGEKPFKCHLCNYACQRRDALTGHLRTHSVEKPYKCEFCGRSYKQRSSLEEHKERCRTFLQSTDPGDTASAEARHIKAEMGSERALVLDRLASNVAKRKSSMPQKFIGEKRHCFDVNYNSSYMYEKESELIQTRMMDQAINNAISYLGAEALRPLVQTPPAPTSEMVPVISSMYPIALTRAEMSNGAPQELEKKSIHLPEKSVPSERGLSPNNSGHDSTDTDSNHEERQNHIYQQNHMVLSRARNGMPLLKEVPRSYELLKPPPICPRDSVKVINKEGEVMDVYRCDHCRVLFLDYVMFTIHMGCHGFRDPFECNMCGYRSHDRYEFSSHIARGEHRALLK
# T3 sequence (Q96SW2 whole entry): as the sequence (Q96SW2 whole entry) above
# T3 sequence (Q16531 whole entry partner): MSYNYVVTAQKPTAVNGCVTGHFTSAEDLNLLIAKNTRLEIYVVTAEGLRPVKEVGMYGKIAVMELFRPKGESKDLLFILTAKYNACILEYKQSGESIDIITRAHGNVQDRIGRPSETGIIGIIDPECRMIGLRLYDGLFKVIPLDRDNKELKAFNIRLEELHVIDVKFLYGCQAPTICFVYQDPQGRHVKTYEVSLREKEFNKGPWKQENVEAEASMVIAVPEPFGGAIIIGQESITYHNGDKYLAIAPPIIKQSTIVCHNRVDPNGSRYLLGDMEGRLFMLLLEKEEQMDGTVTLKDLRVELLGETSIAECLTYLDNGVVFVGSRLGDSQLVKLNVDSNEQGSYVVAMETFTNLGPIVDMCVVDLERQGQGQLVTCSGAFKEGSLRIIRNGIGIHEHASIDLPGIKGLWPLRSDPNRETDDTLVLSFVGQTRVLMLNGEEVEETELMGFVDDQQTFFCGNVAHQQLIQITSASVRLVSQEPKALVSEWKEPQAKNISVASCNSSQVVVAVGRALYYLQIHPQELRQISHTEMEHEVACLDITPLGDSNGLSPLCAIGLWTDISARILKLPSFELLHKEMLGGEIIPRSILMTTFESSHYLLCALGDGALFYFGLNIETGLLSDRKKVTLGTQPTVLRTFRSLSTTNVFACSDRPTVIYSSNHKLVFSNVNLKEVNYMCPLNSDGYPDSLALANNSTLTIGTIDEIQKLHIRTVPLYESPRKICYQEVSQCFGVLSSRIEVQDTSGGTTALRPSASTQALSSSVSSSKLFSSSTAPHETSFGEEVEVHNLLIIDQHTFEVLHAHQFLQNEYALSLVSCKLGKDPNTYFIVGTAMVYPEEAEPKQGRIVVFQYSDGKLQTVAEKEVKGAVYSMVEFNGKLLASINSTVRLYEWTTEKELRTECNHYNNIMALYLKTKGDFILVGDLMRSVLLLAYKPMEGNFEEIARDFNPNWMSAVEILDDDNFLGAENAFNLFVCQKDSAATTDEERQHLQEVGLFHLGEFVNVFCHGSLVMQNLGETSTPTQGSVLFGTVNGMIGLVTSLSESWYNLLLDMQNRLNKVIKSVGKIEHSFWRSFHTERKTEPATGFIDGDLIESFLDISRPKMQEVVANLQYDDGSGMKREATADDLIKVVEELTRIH
# T1 sequence (Q13422 whole entry): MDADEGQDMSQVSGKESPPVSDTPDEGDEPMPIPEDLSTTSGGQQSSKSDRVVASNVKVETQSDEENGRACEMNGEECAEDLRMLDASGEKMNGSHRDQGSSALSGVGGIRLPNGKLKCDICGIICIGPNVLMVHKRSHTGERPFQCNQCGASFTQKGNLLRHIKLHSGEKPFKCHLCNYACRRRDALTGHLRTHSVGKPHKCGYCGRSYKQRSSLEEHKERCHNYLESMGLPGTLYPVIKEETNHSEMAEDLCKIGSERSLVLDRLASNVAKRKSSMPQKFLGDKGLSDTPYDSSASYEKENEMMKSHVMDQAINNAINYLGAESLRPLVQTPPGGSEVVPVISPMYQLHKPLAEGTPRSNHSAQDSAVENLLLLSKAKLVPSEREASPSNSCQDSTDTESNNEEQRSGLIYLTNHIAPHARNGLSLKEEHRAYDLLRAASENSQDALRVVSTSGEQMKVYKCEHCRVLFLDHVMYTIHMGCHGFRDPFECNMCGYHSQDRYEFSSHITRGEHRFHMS
# T1 sequence (Q96SW2 whole entry): as the sequence (Q96SW2 whole entry) above
# T1 sequence (Q16531 whole entry partner): as the sequence (Q16531 whole entry partner) above
# T5 sequence (P30291 whole entry): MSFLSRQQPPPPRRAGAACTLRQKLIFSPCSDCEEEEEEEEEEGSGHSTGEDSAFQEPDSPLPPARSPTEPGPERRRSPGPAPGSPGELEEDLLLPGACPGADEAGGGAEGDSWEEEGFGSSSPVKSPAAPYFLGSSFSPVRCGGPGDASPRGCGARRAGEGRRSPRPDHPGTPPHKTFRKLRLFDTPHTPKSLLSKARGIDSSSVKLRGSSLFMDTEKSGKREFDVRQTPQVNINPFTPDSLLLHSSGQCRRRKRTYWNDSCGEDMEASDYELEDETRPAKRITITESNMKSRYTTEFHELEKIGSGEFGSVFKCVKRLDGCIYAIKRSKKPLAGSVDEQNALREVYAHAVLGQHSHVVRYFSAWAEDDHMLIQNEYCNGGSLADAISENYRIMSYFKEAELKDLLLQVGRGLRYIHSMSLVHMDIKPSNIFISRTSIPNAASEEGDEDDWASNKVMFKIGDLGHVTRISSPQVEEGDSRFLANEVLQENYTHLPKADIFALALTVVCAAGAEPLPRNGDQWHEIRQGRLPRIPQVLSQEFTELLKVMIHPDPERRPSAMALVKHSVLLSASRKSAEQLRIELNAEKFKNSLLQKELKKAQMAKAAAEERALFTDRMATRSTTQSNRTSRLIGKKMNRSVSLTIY
# T5 sequence (Q96SW2 whole entry): as the sequence (Q96SW2 whole entry) above
# T5 sequence (Q16531 whole entry partner): as the sequence (Q16531 whole entry partner) above
# T2 sequence (Q9UKS7 whole entry): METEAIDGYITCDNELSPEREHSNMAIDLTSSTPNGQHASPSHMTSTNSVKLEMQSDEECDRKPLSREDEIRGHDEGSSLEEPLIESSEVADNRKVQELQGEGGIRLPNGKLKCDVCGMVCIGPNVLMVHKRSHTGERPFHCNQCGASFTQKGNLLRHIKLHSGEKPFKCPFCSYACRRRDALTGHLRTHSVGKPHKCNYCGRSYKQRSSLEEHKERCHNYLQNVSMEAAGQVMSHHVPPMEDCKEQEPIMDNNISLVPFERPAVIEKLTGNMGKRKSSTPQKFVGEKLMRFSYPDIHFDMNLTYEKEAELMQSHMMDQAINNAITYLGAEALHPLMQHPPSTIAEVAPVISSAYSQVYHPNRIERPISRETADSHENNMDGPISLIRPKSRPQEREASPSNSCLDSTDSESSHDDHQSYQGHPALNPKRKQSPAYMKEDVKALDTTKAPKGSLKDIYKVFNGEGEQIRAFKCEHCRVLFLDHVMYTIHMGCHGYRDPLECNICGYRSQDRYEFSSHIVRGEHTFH
# T2 sequence (Q96SW2 whole entry): as the sequence (Q96SW2 whole entry) above
# T2 sequence (Q16531 whole entry partner): as the sequence (Q16531 whole entry partner) above
# T7 sequence (P15170 whole entry): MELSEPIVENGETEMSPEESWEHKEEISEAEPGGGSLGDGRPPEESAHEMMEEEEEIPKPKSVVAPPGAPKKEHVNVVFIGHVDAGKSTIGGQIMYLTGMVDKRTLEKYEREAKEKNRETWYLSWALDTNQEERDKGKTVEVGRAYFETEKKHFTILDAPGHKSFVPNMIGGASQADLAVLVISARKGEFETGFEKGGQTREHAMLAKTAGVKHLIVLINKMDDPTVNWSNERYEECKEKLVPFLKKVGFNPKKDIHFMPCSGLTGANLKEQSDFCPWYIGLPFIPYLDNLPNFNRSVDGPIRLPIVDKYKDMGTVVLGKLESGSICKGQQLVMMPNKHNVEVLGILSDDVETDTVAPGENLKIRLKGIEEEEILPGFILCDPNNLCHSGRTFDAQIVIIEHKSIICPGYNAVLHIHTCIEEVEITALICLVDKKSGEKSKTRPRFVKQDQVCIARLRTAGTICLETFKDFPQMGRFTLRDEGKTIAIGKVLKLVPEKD
# T7 sequence (Q96SW2 whole entry): as the sequence (Q96SW2 whole entry) above
# T7 sequence (Q16531 whole entry partner): as the sequence (Q16531 whole entry partner) above
Compound,IKZF 1 substrate protein remaining % (IKZF1),IC50 (MM.1R) [nM],IKZF2 substrate protein remaining % (IKZF2),IC50 (Jurkat) [nM],IKZF3 substrate protein remaining % (IKZF3),IC50 (CAL-62) [nM],IC50 [1] [µM],IC50 (Vcap) [nM],IC50 [2] [nM],IC50 (CCRF-CEM) [nM],Weel substrate protein remaining % (WEE1),CK1a substrate protein remaining % (CK1α),GSPT1 substrate protein remaining % (GSPT1),IC50 [3] [nM],IC50 (NCI-H1975) [nM],IC50 (TMD8) [nM]
"O=C1CCC(N2Cc3cc(CN4CCN(c5cc(Cl)ccn5)CC4)ccc3C2=O)C(=O)N1 (stereo not shown) [GT-04430, 3-(5-((4-(4-chloropyridin-2-yl)piperazin-1-yl)methyl)-1-oxoisoindolin-2-yl)piperidine-2,6-dione]",A (0% ≤ substrate protein remaining % ≤ 80%),50 to 100,A (0% ≤ substrate protein remaining % ≤ 80%),10 to 50,A (0% ≤ substrate protein remaining % ≤ 80%),50 to 100,0.5 to 1,100 to 500,10 to 50,10 to 50,B (80%< substrate protein remaining %≤ 100%),B (80%< substrate protein remaining %≤ 100%),A (0% ≤ substrate protein remaining % ≤ 80%),–,–,–
"O=C1CCC(N2Cc3c(ccc(CN4CCC(c5noc6cc(F)ccc56)CC4)c3F)C2=O)C(=O)N1 (stereo not shown) [GT-04765, 3-(4-fluoro-5-((4-(6-fluorobenzo[d]isoxazol-3-yl)piperidin-1-yl)methyl)-1-oxoisoindolin-2-yl)piperidine-2,6-dione]",A (0% ≤ substrate protein remaining % ≤ 80%),–,A (0% ≤ substrate protein remaining % ≤ 80%),–,A (0% ≤ substrate protein remaining % ≤ 80%),–,1 to 1.5,–,5 to 10,–,A (0% ≤ substrate protein remaining % ≤ 80%),A (0% ≤ substrate protein remaining % ≤ 80%),A (0% ≤ substrate protein remaining % ≤ 80%),10 to 50,50 to 100,100 to 500
"O=C1CCC(N2Cc3cc(CN4CCN(c5c[nH]c6ncccc56)CC4)ccc3C2=O)C(=O)N1 (stereo not shown) [GT-04601, 3-(5-((4-(1H-pyrrolo[2,3-b]pyridin-3-yl)piperazin-1-yl)methyl)-1-oxoisoindolin-2-yl)piperidine-2,6-dione]",A (0% ≤ substrate protein remaining % ≤ 80%),–,B (80%< substrate protein remaining %≤ 100%),–,A (0% ≤ substrate protein remaining % ≤ 80%),–,< 0.5,–,100 to 500,–,A (0% ≤ substrate protein remaining % ≤ 80%),A (0% ≤ substrate protein remaining % ≤ 80%),A (0% ≤ substrate protein remaining % ≤ 80%),500 to 1000,–,500 to 1000
"Cc1sc2ncnc(C3=CCN(Cc4ccc5c(c4)CN(C4CCC(=O)NC4=O)C5=O)CC3)c2c1C (stereo not shown) [GT-04727, 3-(5-((4-(5,6-dimethylthieno[2,3-d]pyrimidin-4-yl)-3,6-dihydropyridin-1(2H)-yl)methyl)-1-oxoisoindolin-2-yl)piperidine-2,6-dione]",A (0% ≤ substrate protein remaining % ≤ 80%),–,B (80%< substrate protein remaining %≤ 100%),–,A (0% ≤ substrate protein remaining % ≤ 80%),–,< 0.5,–,10 to 50,–,A (0% ≤ substrate protein remaining % ≤ 80%),A (0% ≤ substrate protein remaining % ≤ 80%),A (0% ≤ substrate protein remaining % ≤ 80%),100 to 500,–,500 to 1000
"COc1ccccc1N1CCN(Cc2ccc3c(c2)CN(C2CCC(=O)NC2=O)C3=O)CC1 (stereo not shown) [GT-04490, 3-(5-((4-(2-methoxyphenyl)piperazin-1-yl)methyl)-1-oxoisoindolin-2-yl)piperidine-2,6-dione]",B (80%< substrate protein remaining %≤ 100%),100 to 500,A (0% ≤ substrate protein remaining % ≤ 80%),50 to 100,B (80%< substrate protein remaining %≤ 100%),500 to 1000,0.5 to 1,500 to 1000,100 to 500,50 to 100,B (80%< substrate protein remaining %≤ 100%),A (0% ≤ substrate protein remaining % ≤ 80%),A (0% ≤ substrate protein remaining % ≤ 80%),–,–,–
"O=C1CCC(N2Cc3cc(CN4CCC(c5noc6cc(F)ccc56)CC4)c(F)cc3C2=O)C(=O)N1 (stereo not shown) [GT-04766, 3-(6-fluoro-5-((4-(6-fluorobenzo[d]isoxazol-3-yl)piperidin-1-yl)methyl)-1-oxoisoindolin-2-yl)piperidine-2,6-dione]",–,–,–,–,–,–,1.5 to 1.9,–,1 to 5,–,–,–,–,10 to 50,10 to 50,10 to 50
"O=C1CCC(N2Cc3cc(CN4CCC(c5ccc(Br)cc5)CC4)ccc3C2=O)C(=O)N1 (stereo not shown) [GT-04493, 3-(5-((4-(4-bromophenyl)piperidin-1-yl)methyl)-1-oxoisoindolin-2-yl)piperidine-2,6-dione]",B (80%< substrate protein remaining %≤ 100%),10 to 50,A (0% ≤ substrate protein remaining % ≤ 80%),10 to 50,B (80%< substrate protein remaining %≤ 100%),10 to 50,0.5 to 1,100 to 500,–,10 to 50,A (0% ≤ substrate protein remaining % ≤ 80%),A (0% ≤ substrate protein remaining % ≤ 80%),A (0% ≤ substrate protein remaining % ≤ 80%),–,–,–
"O=C1CCC(N2Cc3cc(CN4CCC(c5ccc(F)cc5)CC4)ccc3C2=O)C(=O)N1 (stereo not shown) [GT-04471, 3-(5-((4-(4-fluorophenyl)piperidin-1-yl)methyl)-1-oxoisoindolin-2-yl)piperidine-2,6-dione]",A (0% ≤ substrate protein remaining % ≤ 80%),50 to 100,A (0% ≤ substrate protein remaining % ≤ 80%),10 to 50,A (0% ≤ substrate protein remaining % ≤ 80%),100 to 500,0.5 to 1,100 to 500,10 to 50,10 to 50,A (0% ≤ substrate protein remaining % ≤ 80%),B (80%< substrate protein remaining %≤ 100%),A (0% ≤ substrate protein remaining % ≤ 80%),–,–,–
"Cc1ccccc1N1CCN(Cc2ccc3c(c2)CN(C2CCC(=O)NC2=O)C3=O)CC1 (stereo not shown) [GT-04461, 3-(1-oxo-5-((4-(o-tolyl)piperazin-1-yl)methyl)isoindolin-2-yl)piperidine-2,6-dione]",A (0% ≤ substrate protein remaining % ≤ 80%),10 to 50,A (0% ≤ substrate protein remaining % ≤ 80%),10 to 50,A (0% ≤ substrate protein remaining % ≤ 80%),50 to 100,1 to 1.5,100 to 500,10 to 50,10 to 50,A (0% ≤ substrate protein remaining % ≤ 80%),B (80%< substrate protein remaining %≤ 100%),A (0% ≤ substrate protein remaining % ≤ 80%),–,–,–
